Columns and labels:
DNTs [1] = test: Ex vivo DNT expansion in increasing concentrations of Ide; assay type: cell-based, human
Method: DNT was obtained and expanded as previously reported in the presence or absence of Ide (Selleckchem). Briefly, blood from healthy donor was collected in sodium heparin containing vacutainers (Becton, Dickinson and Company). Then, CD4^+ and CD8^+ T cells were depleted from healthy donor-derived PBMCs by incubating whole blood with RosetteSep human CD4 and CD8 depletion cocktail (StemCell Technologies) followed by density gradient centrifugation to collect CD4 and CD8 depleted buffy coats.

DNTs [2] = test: CD69 expression on ex vivo expanded DNTs; assay type: cell-based, human; conditions: 0, 1 and 5 μM Ide; day 7, 10 and 17
Method: Frequency of CD69 expression from day 7, 10 and 17 ex vivo expanded DNTs in 0, 1 and 5 μM of de.

DNTs [3] = test: Memory status of ex vivo expanded DNTs (CD45RA, CD62L flow cytometry); assay type: cell-based, human; conditions: end of expansion (day 17)
From the text: (FIG. 6A) Representative flow plots showing memory status. […] Tnaive/SCM=CD45RA^+CD62L^+; TCM=CD45RA^−CD62L^+; TEM=CD45RA^−CD62L; Teffector=CD45RA^+CD62L^−. (FIG. 6B) Frequency of DNTs in early memory subset TCM/SCM (CD45RA^+/CD62L^+ and CD45RA^−CD62L^+; left), TEM (CD45RA^−CD62L^−; middle) and TEFF (CD45RA^+CD62L^−; right) from day 7 to day 17 of ex vivo DNT expansion culture. […] Each dot represents DNTs from one donor. The cell number is normalized to day 0 DNT number. […] The expression shown is relative to the expression of housekeeping gene, HPRT. Each paired symbols represent DNTs from one donor. […] Expansion fold relative to the number of DNTs at the start of co-culture was determined after 2 days and 8 days (Left). Absolute number of viable DNTs from each treatment group after co-culture with OCI-AML3 (Right). […] (FIG. 6F) Memory status of DNTs 8 days post co-culture with OCI-AML3 determined by flow-cytometry. […]

[4] = autoimmune toxicities, infection, diarrhea, skin problems; cited from earlier work
DNTs [5] = test: DNT viability (Annexin V, 7-AAD flow cytometry); assay type: cell-based, human; conditions: 5 healthy donors, day 17
Method: The result shown is a summary of three experiments. […] The cell viability was determined with Annexin V and 7-AAD staining using flow cytometry. […] Subsequently, the viability of DNTs (gated on CD45^high CD3^+CD33/CD34^−) were determined using flow cytometry. […] Each paired symbol represents DNTs from one donor.
and viability of effector cells was calculated by 100-% AnnexinV^+ in cultures of DNTs with AML.

DNTs [6] = test: Exhaustion marker expression on DNTs (flow cytometry); assay type: cell-based, human
From the text: FIGS. 7A-7G. […] Representative flow plot is shown (Left). The numbers represent the MFI value (Right). […] Horizontal bars represent the mean relative MFI and error bars show SEM. (FIG. 7C) Expression of exhaustion associated transcription factor gene, TOX, relative to the expression of housekeeping gene, HPRT, determined by qPCR. Each paired symbol represents DNTs from one individual. […] Subsequently, cells were intracellularly stained with anti-TNFα and anti-IFNγ antibodies, and the expression levels were determined by flow cytometry. Representative flow plot is shown (Left). The numbers represent the frequency in each gate. […] The result shown is a summary of three experiments. (FIG. 7E) Frequency of viable ctrl-DNTs and Ide-DNTs on day 17 of expansion. The cell viability was determined with Annexin V and 7-AAD staining using flow cytometry. […] (FIG. 7F) Viability of ctrl-DNTs and Ide-DNTs after co-culture with primary AML cells from 7 different patients. […]
The following antibodies were used in this study: CD4-FITC or -APCcy7, CD56-PE, CD3-PEcy7 or -Alexa Flour700, CD8-APC or -APCcy7, CD45RA-FITC, CD95-APC, CD62L-PEcy7, CTLA4-PE, LAG3-PEcy7, TIM3-APC, CD45-FITC or -APCcy7, CD34-PE, CD33-APC, AnnexinV-Pacific Blue or -FITC, 7AAD, IFNy-PE, TNFα-APC and DAPI. […] Data were obtained using Attune NXT flow Cytometer (ThermoFisher) and analyzed with Flowjo software (Tree Star, Inc.).

DNTs [7] = test: Effect of JQ1 on memory status of DNTs (flow cytometry of CD27, CD62L, CD45RA); assay type: cell-based, human; conditions: JQ1 0.075, 0.15, 0.30 μM for 20 days; day 14, 17 and 20 of DNT expansion
From the text: JQ1 was given to the culture on day 0, 3, 7, 10, 14, and 17.

conventional T cells = conditions: Kagoya et al. 2016; cited from earlier work

Row | Compound | DNT viability at the end of cell expansion cultures (DNTs [1]; 1 μM Ide) | cell yield at the end of expansion compared to vehicle control (DNTs [1]; 0.1-1.0 μM Ide) | DNT expansion (DNTs [1]; 3.0-10.0 μM of Ide) | CD69 expression (DNT activation signal) (DNTs [2]) | TCM/TSCM cell number, fold higher compared to ctrl-DNTs (DNTs [3]) [fold] | adverse events associated with Ide-treatment [4] | viability of DNTs after expansion (DNTs [5]) | expression of inhibitory receptor Lag3 on DNTs compared to ctrl-DNTs (DNTs [6]) | expression of inhibitory receptor Tim3 on DNTs compared to ctrl-DNTs (DNTs [6]) | memory formation of DNTs across treatment groups (DNTs [7]) | inducing memory phenotype on conventional T cells (conventional T cells)
1 | CC[C@H](Nc1ncnc2[nH]cnc12)c1nc2cccc(F)c2c(=O)n1-c1ccccc1 [Ide, 5-fluoro-3-phenyl-2-[(1S)-1-(7H-purin-6-ylamino)propyl]quinazolin-4-one] | highest DNT viability | improved cell yield | compromised | reduced levels of CD69 expression in a dose-dependent manner | 3.87±0.82 | severe adverse events | significantly improved the viability | reduced the expression | reduced the expression |  | 
2 | Cc1sc2c(c1C)C(c1ccc(Cl)cc1)=N[C@@H](CC(=O)OC(C)(C)C)c1nnc(C)n1-2 [JQ1] |  |  |  |  |  |  |  |  |  | no biologically meaningful differences | top hit amongst 31 chemicals tested
